Results taken from article PMC3901259, “Characterisation of the Metabolites of 1,8-Cineole Transferred into Human Milk: Concentrations and Ratio of Enantiomers” (Metabolites, 2013).

Legend:
[1] = Quantification of 1,8-cineole metabolites in human milk (SAFE, GC-MS, internal standard and matrix calibration) after oral intake of 100 mg 1,8-cineole; type: in vivo; settings: for Absolute concentration in human milk: single determination
Text: Human milk samples were provided voluntarily by breastfeeding mothers after intake of the non-prescription pharmaceutical Soledum® (Klosterfrau Healthcare Group, Cologne, Germany). Before the beginning of the study, the participants were informed verbally, as well as in written form, about the study procedure and purpose and they were told that withdrawing from the study was possible at any time without giving any reason. All volunteers gave written consent to the analysis of their milk samples and anonymous publication of the resulting data. The Ethical Committee of the Medical Faculty, University Erlangen-Nuremberg, approved the experimental procedures. Each participant was handed a copy of the Soldeum® package instructions and was advised to read it before capsule intake. They were also advised to withdraw from the study if any negative reactions such as medication allergies or interactions with other drugs they were taking were to be expected. Additionally, the volunteers were informed verbally about potential effects of the pharmaceutical preparation on breastfeeding, i.e. the risk of an altered milk flavour and rejection of the milk by the nursling. Accordingly, if this would happen, the mothers were recommended to feed their babies with stored human milk or formula milk products.
The milk donors were between the ages of 29 and 40 years (mean 34 years). During their participation in the study, their breast milk production had to be normal and in excess of their infants' needs, with no breast infections and no overall medical complaints present. Five participants were primiparous, three were multiparous and the breast milk samples were from 19 weeks to 19 months postpartum. For sampling, either electrical or mechanical breast pumps or manual expression techniques were applied, resulting in sample volumes between 10 and 100 mL. The samples were immediately subjected to sample preparation after a maximum storage time of five hours at 7 °C or were stored in a freezer at −20 °C for up to five days.
The participating volunteers were asked to ingest one Soledum® capsule, containing 100 mg 1,8-cineole, and to wait until they themselves or another person began to notice the eucalyptus-like odour on their breath. […] The donors were instructed to keep notes on the dates of capsule intake, first eucalyptus-like odour on their breath and exact sampling time. Unfortunately it was difficult for some mothers to detect the smell on their breath so they expressed the samples after some time without having noticed the smell, or reported having been unsure about the smell. […] Some of the donors repeated the whole experiment and some expressed more than one sample after the capsule intake, resulting in 14 samples in total, from 8 different mothers.
Extracts containing the volatile fraction of the human milk samples were prepared by Solvent Assisted Flavour Evaporation (SAFE) after addition of deuterated 1,8-cineole as internal standard (solution in dichloromethane), followed by 10 min of stirring, then another addition of dichloromethane (50% v/v), and 30 min of stirring. The resulting stable phase was distilled in the SAFE-apparatus at 50 °C and approximately 1x10^−4 mbar. The volatile fraction of the samples was frozen with liquid nitrogen. After thawing, it consisted of two phases, formed by the dichloromethane and by the water out of the milk. The water phase was extracted three times with dichloromethane, and the solvent phases were combined and dried over anhydrous Na2SO4. Finally the sample extracts were concentrated by microdistillation according to Bemelmans at 50 °C to a total volume of 50 to 200 μL.
For GC-MS analyses, an Agilent MSD quadrupole system (GC 7890A with MSD 5975C, Agilent Technologies, Waldbronn, Germany) coupled with a CIS 4C (cooled injection system) and an MPS 2 auto-sampler (Gerstel GmbH & Co. KG, Duisburg, Germany) were used. […]

[2] = set-up: method as in PMID 20425757; settings: one volunteer, sage tea, overall intake 1.02 mg 1,8-cineole; cited from earlier work
[3] = Determination of the ratios of enantiomers of chiral metabolites in human milk on chiral GC capillaries; type: in vivo
Text: The separation of the chiral metabolites of 1,8-cineole was successfully achieved using different β- or γ-cyclodextrin-based stationary phases (Rt-bDEXsa, Rt-bDEXse, Rt-bDEXsm and Rt-yDEXsa) for gas chromatographic analysis. Table S1, in the supplementary material, lists the usable separation phases and the respective retention indices (determined according to van den Dool and Kratz) for each pair of enantiomers. It was therefore decided to use the following capillaries for the analysis of the human milk samples: Rt-bDEXsm for separation of 2,3-dehydro-, α2,3-epoxy-, 2-oxo-, 3-oxo- and 9-hydroxy-1,8-cineole, and Rt-yDEXsa for separation of α2-hydroxy-, α3-hydroxy- and β2-hydroxy-1,8-cineole, under the GC conditions described in the experimental section.
For GC-MS analyses, an Agilent MSD quadrupole system (GC 7890A with MSD 5975C, Agilent Technologies, Waldbronn, Germany) coupled with a CIS 4C (cooled injection system) and an MPS 2 auto-sampler (Gerstel GmbH & Co. KG, Duisburg, Germany) were used. Data collection and analysis were performed with the MSD ChemStation E.02.00.493 (Agilent Technologies, Inc.) software. Quantification experiments were carried out on DB-FFAP and DB-5 capillaries (30 m length, 0.25 mm inner diameter, 0.25 µm film thickness, Agilent J&W GC Columns, USA), and for monitoring of the ratio of enantiomers the chiral capillaries Rt-bDEXsa, Rt-bDEXse, Rt-bDEXsm and Rt-yDEXsa (30 m length, 0.32 mm inner diameter, 0.25 µm film thickness, Restek GmbH, Bad Homburg, Germany) were utilised. Pre-columns of uncoated, deactivated fused silica (0.53 mm inner diameter, 0.5 to 3.5 m length) were used to ensure that no potentially present low-volatile residues could contaminate the analytical capillaries. The temperature programme of the column oven was as follows: 40 °C for 2 min, 4 °C/min up to 170 °C, 40 °C/min up to 230 °C (Rt-DEX capillaries), 240 °C (DB-FFAP) and 250 °C (DB-5), respectively, and hold time at end temperature of 5 to 10 min. As carrier gas, helium was used at a flow rate of 1.3 mL/min (velocity 41.1 cm/s). Injection of 1 or 2 µL was performed by the auto-sampler.
For the separation of the pairs of enantiomers of the chiral metabolites of 1,8-cineole, four different capillaries (Rt-bDEXsa, Rt-bDEXse, Rt-bDEXsm, and Rt-yDEXsa) were evaluated for optimisation of the peak-to-peak resolution of the enantiomers by injecting a mixture of all the metabolites in a dichloromethane solution and by varying the heating rate. Besides the separation of each pair of enantiomers from each other, it was also important to confirm that no other metabolite coeluted with any one of the enantiomers, because the milk samples would most probably contain all metabolites. Moreover, the separation conditions for the mixture of reference substances were also tested on some human milk sample extracts and modified accordingly, where necessary, to avoid coelution with interfering matrix compounds.
For calculation of the ratio of enantiomers (that is, the relative abundance of each enantiomer to the not separated mixture of enantiomers), the peak area of each enantiomer was divided by the sum of the peak areas of both enantiomers and multiplied by 100. With the known concentrations of the chiral metabolites in each milk sample, the absolute concentration of each single enantiomer was also calculated by multiplying the concentration with the respective percentage.

[4] = sample A-1b (odour yes), oral 100 mg 1,8-cineole, values given with (<x) are approximations
[5] = sample B-1 (odour yes), oral 100 mg 1,8-cineole, values given with (<x) are approximations
[6] = sample B-2b (odour yes), oral 100 mg 1,8-cineole, values given with (<x) are approximations
[7] = sample B-2c (no odour), oral 100 mg 1,8-cineole
[8] = sample C (no odour; very weak odour not caused by 1,8-cineole), oral 100 mg 1,8-cineole, values given with (<x) are approximations
[9] = sample D-1 (no odour), oral 100 mg 1,8-cineole, values given with (<x) are approximations
[10] = sample D-2 (odour yes), oral 100 mg 1,8-cineole, values given with (<x) are approximations
[11] = sample E-2 (odour yes), oral 100 mg 1,8-cineole, values given with (<x) are approximations
[12] = sample G (odour yes), oral 100 mg 1,8-cineole, values given with (<x) are approximations
[13] = sample H (odour yes), oral 100 mg 1,8-cineole, values given with (<x) are approximations
[14] = sample F (no odour), parent ingested two capsules, values given with (<x) are approximations

SMILES	Absolute concentration in human milk [1, 4] [µg/kg]	Absolute concentration in human milk [1, 5] [µg/kg]	Estimated maximum level in human milk (concentration calculated with the last calibration point, in parentheses) ([1]; sample B-2b (odour yes)) [µg/kg]	Absolute concentration in human milk [1, 6] [µg/kg]	Absolute concentration in human milk [1, 7] [µg/kg]	Estimated maximum level in human milk (concentration calculated with the last calibration point, in parentheses) ([1]; sample C (no odour)) [µg/kg]	Absolute concentration in human milk [1, 8] [µg/kg]	Estimated maximum level in human milk (concentration calculated with the last calibration point, in parentheses) ([1]; sample D-1 (no odour)) [µg/kg]	Absolute concentration in human milk [1, 9] [µg/kg]	Estimated maximum level in human milk (concentration calculated with the last calibration point, in parentheses) ([1]; sample D-2 (odour yes)) [µg/kg]	Absolute concentration in human milk [1, 10] [µg/kg]	Absolute concentration in human milk [1, 11] [µg/kg]	Estimated maximum level in human milk (concentration calculated with the last calibration point, in parentheses) ([1]; sample G (odour yes)) [µg/kg]	Absolute concentration in human milk [1, 12] [µg/kg]	Absolute concentration in human milk [1, 13] [µg/kg]	Absolute concentration in human milk [1, 14] [µg/kg]	further results
CC12CCC(C(O)C1)C(C)(C)O2 (stereo not drawn) [a3-hydroxy-1,8-cineole, α3-Hydroxy-1,8-cineole]	0.77	1.06	< 2.07	0.54	0.05	< 0.96	0.05	< 1.06	0.03	< 1.92	0.41	0.96	< 3.51	0.72	1.53		Estimated maximum level in human milk (concentration calculated with the last calibration point, in parentheses) ([1]; sample A-1b (odour yes)): < 1.14 µg/kg; Estimated maximum level in human milk (concentration calculated with the last calibration point, in parentheses) ([1]; sample B-1 (odour yes)): < 1.65 µg/kg; Estimated maximum level in human milk (concentration calculated with the last calibration point, in parentheses) ([1]; sample E-2 (odour yes)): < 1.78 µg/kg; Estimated maximum level in human milk (concentration calculated with the last calibration point, in parentheses) ([1]; sample H (odour yes)): < 1.96 µg/kg; Concentration in plasma [2]: below the limit of quantitation
CC12CCC(O)(CC1)C(C)(C)O2 [4-hydroxy-1,8-cineole]	5.96	6.35		5.62	2.32				2.24		7.13	8.92		3.39	5.66	3.62	
CC12CCC(C(=O)C1)C(C)(C)O2 (centres unmarked) [3-oxo-1,8-cineole]	1.80	3.32	< 2.37	1.47	0.68	< 1.10	0.14	< 1.22	0.77	< 2.20	2.12	2.41	< 4.02	3.38	3.85	0.07	Estimated maximum level in human milk (concentration calculated with the last calibration point, in parentheses) ([1]; sample A-1a (no odour)): < 1.57 µg/kg; Absolute concentration in human milk ([1]; sample A-1a (no odour), oral 100 mg 1,8-cineole, values given with (<x) lie beyond calibration range, approximation): 0.01 µg/kg; Estimated maximum level in human milk (concentration calculated with the last calibration point, in parentheses) ([1]; sample F (no odour), two capsules): < 3.00 µg/kg; Enantiomeric ratio in human milk [3]: nearly enantiomerically pure; Percentage E1, range as described for boxplot ([3]; human milk samples, Figure 5): under 10%
CC1(C)OC2(C)CCC1CC2O (stereo not drawn) [b2-hydroxy-1,8-cineole, β2-hydroxy-1,8-cineole]	6.00	6.72		5.82	1.71	< 0.96	0.33		1.42		7.35	11.44		3.80	7.90		
